Data taken from patent publication US20250049776A1, “AUTOPHAGY INDUCING COMPOUNDS AND USES THEREOF, IN PARTICULAR FOR A SYSTEMIC TREATMENT OF DISEASES AND CONDITIONS” (Samsara Therapeutics Inc., priority 2021, published 2025).

How the values were obtained:
[1] = tested on: U2OS cell line stabling expressing RFP-eGFP-hLC3b; test: Tandem reporter assay (autophagic flux, RFP-only puncta); assay type: cell-based; settings: Homo sapiens, RFP-only puncta as percentage of DMSO-treated control, 24 hours; for activity at 1 µM: read-out: Autolysosome % DMSO activity (compound concentration of 1 μM); for activity at 10 µM: read-out: Autolysosome % DMSO activity (compound concentration of 10 μM)
Description: Selected compounds of this invention were also assessed for their ability to stimulate autophagy using a U20S cell line stabling expressing RFP-eGFP-hLC3b (a tandem reporter cell line). During the process of autophagy, the cargo to be degraded is first enveloped by organelles called autophagosomes. These autophagosomes then fuse with lysosomes, causing them to become acidified and their digestive enzymes to become activated. The term “autophagic flux” is used to represent the dynamic process of autophagy: autophagic flux refers to the whole process of autophagy, including autophagosome formation, maturation, fusion with lysosomes, subsequent breakdown and the release of macromolecules back into the cytosol (Zhang X J, Chen S, Huang K X, Le W D. Why should autophagic flux be assessed? Acta Pharmacol Sin. 2013 May; 34(5): 595-9. doi: 10.1038/aps.2012.184. Epub 2013 Mar. 11). Compounds that stimulate autophagic flux stimulate the dynamic process of autophagy (the whole process of autophagy).
LC3b is a protein found in the membrane of autophagosomes which has been used to generate genetic reporters of autophagy in cells. In these systems a tandem fusion of LC3b is engineered with two fluorescent proteins of different wavelengths: one which is acid sensitive (for example eGFP, which fluoresces green) and the other which is acid insensitive (for example RFP, which fluoresces red). Cells expressing RFP-eGFP-hLC3b can be examined using fluorescent microscopy: the autophagosomes present will fluoresce in both channels (either yellow in an overlay of both channels or puncta that are present in both the individual red and green channels) but the autolysosomes present will fluoresce in the RFP (red) channel only. Using a fluorescent microscope, the number of autophagosomes and autolysosomes can be counted, allowing for the monitoring of both the induction of autophagy (total puncta count) and the rate of autophagic flux (ratio of red-only to red-and-green puncta). The influence of small molecules on autophagy induction and flux can be assessed using this system by comparison to a non-treated control.
Representative Procedure: Human osteosarcoma U2OS cells stably expressing RFP-eGFP-hLC3b were seeded (10,000 cells/well) into a 96-well glass-bottom plate (Cell Carrier Ultra, Perkin Elmer) in DMEM Glutamax media (Gibco) supplemented with 10% Fetal Bovine Serum (FBS) and antibiotics (100 u/ml penicillin, 100 μg/ml streptomycin, Invitrogen), then incubated overnight in a humified atmosphere at 37° C. and 5% CO2. The cells were then treated with the compounds of interest, dissolved in DMSO, in a duplicated 5- or 10-point dose-response. 8 wells were treated with an equivalent volume of DMSO, 4 with 0.3 μM torin-1 as a positive control (MCE) and 4 wells with 0.4 μM torin-1 plus 0.2 μM bafilomycin (MCE) as a control for flux inhibition. The cells were returned to the incubator and the treatment continued for 24 hours. After treatment, the media was aspirated off and the cells fixed with a solution of 4% formaldehyde+1% glutaraldehyde (Sigma) in dPBS (plus magnesium and calcium, Gibco).
Fixation was allowed to proceed for 15 minutes at room temperature then the fixative solution discarded and replaced with PBS (Gibco) plus Hoescht 33342 ([…], Sigma). After 30 minutes the plates were imaged on an Opera Phenix confocal microscope (Perkin-Elmer) using a 40× water objective, collecting using DAPI, mCherry and GFP channels. Cells were detected based upon the staining of their nuclei with DAPI using the Harmony image analysis software (Perkin-Elmer) and the number of autophagosomes (GFP and RFP puncta) and autolysosomes (RFP only puncta) per cell were counted using the spot picking function within the software.

[2] = tested on: Human osteosarcoma U20S cells; test: Assay to measure lysosome and autolysosome formation (acidic vesicle formation, LysoView/LysoTracker staining); assay type: cell-based; settings: Homo sapiens; U2OS cells, concentration of 0.8 μM; read-out: Activity (percentage increase in acidic vesicle formation over the DMSO-treated control), Table 2
Method in brief: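 U2OS cells treated with compounds in DMSO for 24 h, then stained 45 min at 37 °C with 1× LysoView 633 or 50 nM LysoTracker Deep Red, with Hoechst nuclear counterstain. Live-cell fluorescence imaging at 37 °C; acidic vesicle formation judged against DMSO-treated control.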

Row | Compound | activity at 1 µM [1] | activity at 10 µM [1] | activation at 0.8 µM [2]
1 | CCN(C(=O)c1csc(-c2cnn(-c3ccccn3)c2)n1)[C@H]1CCNC1 [Compound 367, N-ethyl-2-[1-(pyridin-2-yl)-1H-pyrazol-4-yl]-N-[(3S)-pyrrolidin-3-yl]-1,3-thiazole-4-carboxamide] | 114% | 215% | 
2 | CCN(C(=O)c1csc(-c2cnn(-c3ccccc3)n2)n1)[C@@H]1CCNC1 [Compound 365, N-ethyl-2-(2-phenyl-2H-1,2,3-triazol-4-yl)-N-[(3R)-pyrrolidin-3-yl]-1,3-thiazole-4-carboxamide] | 183% |  | 
3 | CC(C)N(C(=O)c1csc(-c2cnn(C)c2)n1)[C@H]1CCNC1 [Compound 389, 2-(1-methyl-1H-pyrazol-4-yl)-N-(propan-2-yl)-N-[(3S)-pyrrolidin-3-yl]-1,3-thiazole-4-carboxamide] | 101% | 108% | 
4 | CC(C)N(C(=O)c1csc(-c2cnn(-c3ccccc3OC(F)(F)F)c2)n1)[C@H]1CCNC1 [Compound 396, N-(propan-2-yl)-N-[(3S)-pyrrolidin-3-yl]-2-{1-[2-(trifluoromethoxy)phenyl]-1H-pyrazol-4-yl}-1,3-thiazole-4-carboxamide] | 138% | 78% | 
5 | O=C(c1coc(-c2cnn(-c3ccccc3OC(F)(F)F)c2)n1)N1C[C@H]2C[C@@H]1CN2 [Compound 378, (1R,4R)-2-(2-{1-[2-(trifluoromethoxy)phenyl]-1H-pyrazol-4-yl}-1,3-oxazole-4-carbonyl)-2,5-diazabicyclo[2.2.1]heptane] | 122% | 199% | 
6 | O=C(c1csc(-c2cnn(-c3ccccc3OC(F)(F)F)c2)n1)N1C[C@H]2C[C@@H]1CN2 [Compound 376, (1R,4R)-2-(2-{1-[2-(trifluoromethoxy)phenyl]-1H-pyrazol-4-yl}-1,3-thiazole-4-carbonyl)-2,5-diazabicyclo[2.2.1]heptane] | 176% | 260% | 
7 | CC(C)N(C(=O)c1csc(-c2cnn(-c3ccccc3)c2)n1)C1CCNCC1(F)F (stereo not shown) [Compound 382, N-(3,3-difluoropiperidin-4-yl)-2-(1-phenyl-1H-pyrazol-4-yl)-N-(propan-2-yl)-1,3-thiazole-4-carboxamide] | 96% | 108% | 
8 | CC(C)N(C(=O)c1csc(-c2cnn(C(C)(C)C)c2)n1)C1CCNCC1 [Compound 394, 2-(1-tert-butyl-1H-pyrazol-4-yl)-N-(piperidin-4-yl)-N-(propan-2-yl)-1,3-thiazole-4-carboxamide] | 114% | 176% | 
9 | CN(C(=O)c1coc(-c2cnn(-c3ccccc3)c2)n1)[C@H]1CCNC1 [Compound 360, N-methyl-2-(1-phenyl-1H-pyrazol-4-yl)-N-[(3S)-pyrrolidin-3-yl]-1,3-oxazole-4-carboxamide] | 113% | 214% | 
10 | CC(C)N(C(=O)c1nc(-c2cnn(-c3ccccc3)c2)c[nH]1)[C@@H]1CCNC1 [Compound 345, 5-(1-phenyl-1H-pyrazol-4-yl)-N-(propan-2-yl)-N-[(3R)-pyrrolidin-3-yl]-1H-imidazole-2-carboxamide] | 116% | 72% | 
11 | COc1ccccc1-n1cc(-c2nc(C(=O)N(C(C)C)[C@H]3CCNC3)cs2)cn1 [Compound 398, 2-[1-(2-methoxyphenyl)-1H-pyrazol-4-yl]-N-(propan-2-yl)-N-[(3S)-pyrrolidin-3-yl]-1,3-thiazole-4-carboxamide] | 116% | 190% | 
12 | CC(C)N(C(=O)c1csc(-c2cnn(-c3ccccc3Cl)c2)n1)[C@H]1CCNC1 [Compound 395, 2-[1-(2-chlorophenyl)-1H-pyrazol-4-yl]-N-(propan-2-yl)-N-[(3S)-pyrrolidin-3-yl]-1,3-thiazole-4-carboxamide] | 137% | 191% | 
13 | CC(C)N(C(=O)c1csc(-c2cnn(C(C)C)c2)n1)[C@H]1CCNC1 [Compound 390, N-(propan-2-yl)-2-[1-(propan-2-yl)-1H-pyrazol-4-yl]-N-[(3S)-pyrrolidin-3-yl]-1,3-thiazole-4-carboxamide] | 106% | 116% | 
14 | CCN(C(=O)c1csc(-c2cnn(-c3ccccc3)n2)n1)[C@H]1CCNC1 [Compound 364, N-ethyl-2-(2-phenyl-2H-1,2,3-triazol-4-yl)-N-[(3S)-pyrrolidin-3-yl]-1,3-thiazole-4-carboxamide] | 166% |  | 
15 | CC(C)N(C(=O)c1coc(-c2cnn(-c3ccccc3)c2)n1)[C@H]1CCNC1 [Compound 381, 2-(1-phenyl-1H-pyrazol-4-yl)-N-(propan-2-yl)-N-[(3S)-pyrrolidin-3-yl]-1,3-oxazole-4-carboxamide] | 118% | 179% | 
16 | CN(C(=O)c1cnc(-c2cnn(-c3ccccc3)c2)[nH]1)[C@H]1CCNC1 [Compound 358, N-methyl-2-(1-phenyl-1H-pyrazol-4-yl)-N-[(3S)-pyrrolidin-3-yl]-1H-imidazole-4-carboxamide] | 102% | 103% | 
17 | CN(C(=O)c1nc(-c2cnn(-c3ccccc3)c2)c[nH]1)[C@H]1CCNC1 [Compound 359, N-methyl-5-(1-phenyl-1H-pyrazol-4-yl)-N-[(3S)-pyrrolidin-3-yl]-1H-imidazole-2-carboxamide] | 113% | 144% | 
18 | O=C(NCC1CCNC1)c1csc(-c2cnn(-c3ccccc3)c2)n1 (stereo not shown) [Compound 179, 2-(1-phenyl-1H-pyrazol-4-yl)-N-[(pyrrolidin-3-yl)methyl]-1,3-thiazole-4-carboxamide] |  |  | 30 to 50%
19 | O=C(NCC1CCNCC1)c1ccc(-c2cnn(-c3ccccc3)c2)o1 [Compound 100, 5-(1-phenyl-1H-pyrazol-4-yl)-N-[(piperidin-4-yl)methyl]furan-2-carboxamide] |  |  | 30 to 50%
20 | CC1CCCN(C(=O)c2csc(-c3cnn(-c4ccccc4)c3)n2)C1CN (stereo not shown) [Compound 153, 1-{3-methyl-1-[2-(1-phenyl-1H-pyrazol-4-yl)-1,3-thiazole-4-carbonyl]piperidin-2-yl}methanamine] |  |  | 10 to 30%
21 | N[C@@H]1CCCN(C(=O)c2csc(-c3cnn(-c4ccccc4)c3)n2)C1 [Compound 143, (3R)-1-[2-(1-phenyl-1H-pyrazol-4-yl)-1,3-thiazole-4-carbonyl]piperidin-3-amine] |  |  | 10 to 30%
22 | O=C(c1csc(-c2cnn(-c3ccccc3)c2)n1)N1CCNCC1 [Compound 104, 1-[2-(1-phenyl-1H-pyrazol-4-yl)-1,3-thiazole-4-carbonyl]piperazine] |  |  | 10 to 30%
23 | CCCN(C(=O)c1csc(-c2cnn(-c3ccccn3)c2)n1)[C@@H]1CCNC1 [Compound 44, N-propyl-2-[1-(pyridin-2-yl)-1H-pyrazol-4-yl]-N-[(3R)-pyrrolidin-3-yl]-1,3-thiazole-4-carboxamide] |  |  | 10 to 30%
24 | NCCNC(=O)c1csc(-c2cnn(-c3ccccc3)c2)n1 [Compound 162, N-(2-aminoethyl)-2-(1-phenyl-1H-pyrazol-4-yl)-1,3-thiazole-4-carboxamide] |  |  | 10 to 30%
25 | CCCN(C(=O)c1csc(-c2cnn(-c3ccncc3)c2)n1)[C@@H]1CCNC1 [Compound 23, N-propyl-2-[1-(pyridin-4-yl)-1H-pyrazol-4-yl]-N-[(3R)-pyrrolidin-3-yl]-1,3-thiazole-4-carboxamide] |  |  | 10 to 30%
